Values quoted from earlier work, collected in publication PMC9729727, “The effect of food on the pharmacokinetics of WXFL10203614, a potential selective JAK1 inhibitor, in healthy Chinese subjects” (Frontiers in Pharmacology, 2022).
Where two headings read alike, the source gives them in different places.

Conditions: for Effect of food on AUC / Effect of food on Cmax: ref Shi et al., 2011, Mohamed et al., Anderson et al.; for Effect of the fed state on Cmax: ref Lamba et al., 2016, Shibata et al., 2021
[1] = 3 mg immediate-release capsules, high-fat meal vs fasted, ref Mohamed et al., 2017

| Structure (SMILES) | Effect of food on AUC (2017, 2019) | Effect of food on Cmax (2017, 2019) | Effect of the fed state on Cmax | further results |
| --- | --- | --- | --- | --- |
| N#CC[C@H](C1CCCC1)n1cc(-c2ncnc3[nH]ccc23)cn1 [INCB018424] | little effect | partly reduced | – | – |
| O=C(Nc1nc2cccc(-c3ccc(CN4CCS(=O)(=O)CC4)cc3)n2n1)C1CC1 [filgotinib] | little effect | partly reduced | – | Effect of meals on systemic exposure (high- and low-fat meals, ref Anderson et al., 2019): little effect; Decrease of Cmax by meal (high-fat meal, ref Anderson et al., 2019): 20%; Decrease of Cmax by meal (low-fat meal, ref Anderson et al., 2019): 11% |
| NC(=O)c1cnc2[nH]ccc2c1N[C@@H]1[C@@H]2CC3C[C@H]1C[C@@](O)(C3)C2 [peficitinib] | – | – | elevated | – |
| C[C@@H]1CCN(C(=O)CC#N)C[C@@H]1N(C)c1ncnc2[nH]ccc12 [tofacitinib] | – | – | elevated | – |
| CC[C@@H]1CN(C(=O)NCC(F)(F)F)C[C@@H]1c1cnc2cnc3[nH]ccc3n12 [upadacitinib] | little effect | partly reduced | – | Decrease of Cmax after a high-fat meal [1]: 23%; Effect of a high-fat meal on AUC [1]: not impacted |
